In US20150105252A1, “SUBSTITUTED PYRAZOLES AS HERBICIDES” (E I DU PONT DE NEMOURS AND COMPANY, priority 2013, published 2015):

How the values were obtained:
foxtail, green = test: Test C postemergence; format: in vivo, Setaria viridis; details: for Foxtail, Green plant response rating: scale 0 to 100
Description: (§1) Seeds of plant species selected from blackgrass (Alopecurus myosuroides), ryegrass, Italian (Italian ryegrass, Lolium multiflorum), wheat (winter wheat, Triticum aestivum), galium (catchweed bedstraw, Galium aparine), corn (Zea mays), crabgrass, large (large crabgrass, Digitaria sanguinalis), foxtail, giant (giant foxtail, Setaria faberii), johnsongrass (Sorghum halepense), lambsquarters (Chenopodium album), morningglory (Ipomoea coccinea), nutsedge, yellow (yellow nutsedge, Cyperus esculentus), pigweed (redroot pigweed, Amaranthus retroflexus), ragweed (common ragweed, Ambrosia elation), soybean (Glycine max), barnyardgrass (Echinochloa crus-galli), oilseed rape (Brassica napus), waterhemp (common waterhemp, Amaranthus rudis), oat, wild (wild oat, Avena fatua), kochia (Kochia scoparia), Surinam grass (Brachiaria decumbens), foxtail, green (green foxtail, Setaria viridis), goosegrass (Eleusine indica), bromegrass, downy (downy bromegrass, Bromus tectorum), nightshade (eastern black nightshade, Solanum ptycanthum), cocklebur (common cocklebur, Xanthium strumarium), cupgrass, woolly (woolly cupgrass, Eriochloa villosa), bermudagrass (Cynodon dactylon), sunflower, (common oilseed sunflower, Helianthus annuus), Russian thistle (Salsola kali), and velvetleaf (Abutilon theophrasti) were planted into a blend of loam soil and sand and treated preemergence with test chemicals formulated in a non-phytotoxic solvent mixture which included a surfactant.
(§2) At the same time, plants selected from these crop and weed species and also chickweed (common chickweed, Stellaria media), canarygrass (littleseed canarygrass, Phalaris minor), and deadnettle (henbit deadnettle, Lamium amplexicaule), were planted in pots containing Redi-Earth® planting medium (Scotts Company, 14111 Scottslawn Road, Marysville, Ohio 43041) comprising spaghnum peat moss, vermiculite, wetting agent and starter nutrients and treated with postemergence applications of test chemicals formulated in the same manner. Plants ranged in height from 2 to 18 cm (1- to 4-leaf stage) for postemergence treatments. Treated plants and controls were maintained in a greenhouse for 13 to 15 days, after which time all species were compared to controls and visually evaluated. Plant response ratings, summarized in Table C, are based on a scale of 0 to 100 where 0 is no effect and 100 is complete control. A dash (-) response means no test result.

kochia [1] = test: Test C preemergence; format: in vivo, Kochia scoparia; details: for Plant response rating (scale of 0 to 100), Kochia: Preemergence, 250 g ai/ha; for Kochia plant response rating / Plant response rating, Kochia: preemergence; for Plant response rating, Kochia: 62 g ai/ha, scale 0 to 100, 0 = no effect, 100 = complete control
Description: as §1, §2

cocklebur = test: Test C preemergence; format: in vivo, Xanthium strumarium; details: for Plant response rating (scale of 0 to 100), Cocklebur: Preemergence, 250 g ai/ha; for Cocklebur plant response rating / Plant response rating, Cocklebur: preemergence; for Plant response rating, Cocklebur: 62 g ai/ha, scale 0 to 100, 0 = no effect, 100 = complete control
Description: as §1, §2

dayflower, VA = test: Test F postemergence; format: in vivo, Commelina virginica; details: Postemergence, scale 0 to 100
Description: (§3) Seeds of plant species selected from corn (Zea mays), soybean (Glycine max), velvetleaf (Abutilon theophrasti), lambsquarters (Chenopodium album), wild poinsettia (Euphorbia heterophylla), pigweed, palmer (palmer pigweed, Amaranthus palmeri), common waterhemp (Amaranthus rudis), surinam grass (Brachiaria decumbens), large crabgrass (Digitaria sanguinalis), crabgrass, Brazil (Brazilian crabgrass, Digitaria horizontalis), fall panicum (Panicum dichotomiflorum), giant foxtail (Setaria faberii), green foxtail (Setaria viridis), goosegrass (Eleusine indica), johnsongrass (Sorghum halepense), common ragweed (Ambrosia elation), barnyardgrass (Echinochloa crus-galli), southern sandbur (Cenchrus echinatus), arrowleaf sida (Sida rhombifolia), Italian ryegrass (Lolium multiflorum), dayflower, VA (Virginia (VA) dayflower, Commelina virginica), field bindweed (Convolvulus arvensis), cocklebur (common cocklebur, Xanthium strumarium), morningglory (Ipomoea coccinea), nightshade (eastern black nightshade, Solanum ptycanthum), kochia (Kochia scoparia), yellow nutsedge (Cyperus esculentus), and hairy beggarticks (Bidens pilosa), were planted into a silt loam soil and treated preemergence with test chemicals formulated in a non-phytotoxic solvent mixture which included a surfactant.
(§4) At the same time, plants from these crop and weed species and also horseweed (Canada horseweed, Conyza canadensis), smartweed (ladysthumb smartweed, Polygonum persicaria), waterhemp_RES1, (ALS & Triazine resistant common waterhemp, Amaranthus rudis), and waterhemp_RES2, (ALS & HPPD resistant common waterhemp, Amaranthus rudis) were treated with postemergence applications of test chemicals formulated in the same manner. Plants ranged in height from 2 to 18 cm for postemergence treatments (1- to 4-leaf stage). Treated plants and controls were maintained in a greenhouse for 14 to 21 days, after which time all species were compared to controls and visually evaluated. Plant response ratings, summarized in Table F, are based on a scale of 0 to 100 where 0 is no effect and 100 is complete control. A dash (-) response means no test result.

corn [2] = test: Test F postemergence; format: in vivo, Zea mays; details: Postemergence, scale 0 to 100
Description: as §3, §4

hairy beggarticks = test: Test F postemergence; format: in vivo, Bidens pilosa; details: Postemergence, scale 0 to 100
Description: as §3, §4

wild poinsettia = test: Test F postemergence; format: in vivo, Euphorbia heterophylla; details: Postemergence, scale 0 to 100
Description: as §3, §4

arrowleaf sida = test: Test F postemergence; format: in vivo, Sida rhombifolia; details: Postemergence, scale 0 to 100
Description: as §3, §4

corn [3] = test: Test F preemergence; format: in vivo, Zea mays
Description: as §3, §4

giant foxtail = test: Test F preemergence; format: in vivo, Setaria faberii
Description: as §3, §4

kochia [4] = test: Test F preemergence; format: in vivo, Kochia scoparia
Description: as §3, §4

pigweed, palmer = test: Test F preemergence; format: in vivo, Amaranthus palmeri
Description: as §3, §4

[5] = postemergence, 250 g ai/ha, scale 0 to 100 (0 no effect, 100 complete control)
[6] = postemergence, 62 g ai/ha, scale 0 to 100, 0 no effect, 100 complete control
[7] = postemergence, 125 g ai/ha, scale 0 to 100, 0 no effect, 100 complete control
[8] = 31 g ai/ha, scale 0 to 100 (0 no effect, 100 complete control), 13 to 15 days
[9] = 125 g ai/ha, scale 0 to 100, 0 is no effect, 100 is complete control
[10] = Preemergence, 62 g ai/ha, scale 0 to 100
[11] = Preemergence, 125 g ai/ha, scale 0 to 100
[12] = Preemergence, 250 g ai/ha, scale 0 to 100
[13] = preemergence, 16 g ai/ha, scale 0 to 100, 100 is complete control

CCc1cc(C(=O)NCC(F)(F)F)nn1Cc1cccc(OC(F)(F)F)c1 [Compound 20]
Foxtail, Green plant response rating (foxtail, green; Postemergence, 31 g ai/ha): 20
Plant response rating, Foxtail, Green (foxtail, green; [5]): 60
Plant response rating, Foxtail, Green (foxtail, green; [6]): 30
Plant response rating, Foxtail, Green (foxtail, green; [7]): 55

CCCNC(=O)c1cc(CC)n(Cc2cccc(OC(F)(F)F)c2)n1 [Compound 27]
Foxtail, Green plant response rating (foxtail, green; Postemergence, 31 g ai/ha): 25
Plant response rating, Foxtail, Green (foxtail, green; [5]): 50
Plant response rating, Foxtail, Green (foxtail, green; [6]): 30
Plant response rating, Foxtail, Green (foxtail, green; [7]): 30

CCc1cc(C(=O)NOC(C)C)nn1Cc1cccc(OC(F)(F)F)c1 [Compound 70]
Plant response rating (scale of 0 to 100), Kochia (kochia [1]): 98
Kochia plant response rating (kochia [1]; [8]): 40
Plant response rating, Kochia (kochia [1]; 13 to 15 days): 65
Kochia plant response rating (kochia [1]; [9]): 98
Plant response rating, Foxtail, Green (foxtail, green; [5]): 80
Plant response rating, Foxtail, Green (foxtail, green; [6]): 5
Plant response rating, Foxtail, Green (foxtail, green; [7]): 80
Plant response rating (scale of 0 to 100), Cocklebur (cocklebur): 100
Cocklebur plant response rating (cocklebur; [8]): 0
Plant response rating, Cocklebur (cocklebur; 13 to 15 days): 0
Cocklebur plant response rating (cocklebur; [9]): 45

CCONC(=O)c1cc(CC)n(Cc2cccc(OC(F)(F)F)c2)n1 [Compound 72]
Plant response rating (scale of 0 to 100), Kochia (kochia [1]): 80
Kochia plant response rating (kochia [1]; [8]): 5
Plant response rating, Kochia (kochia [1]; 13 to 15 days): 45
Kochia plant response rating (kochia [1]; [9]): 50
Foxtail, Green plant response rating (foxtail, green; Postemergence, 31 g ai/ha): 20
Foxtail, Green plant response rating (foxtail, green; postemergence, 62 g ai/ha): 40
Plant response rating, Foxtail, Green (foxtail, green; [5]): 40
Plant response rating, Foxtail, Green (foxtail, green; [7]): 40
Plant response rating (scale of 0 to 100), Cocklebur (cocklebur): 100
Cocklebur plant response rating (cocklebur; [8]): 0
Plant response rating, Cocklebur (cocklebur; 13 to 15 days): 0
Cocklebur plant response rating (cocklebur; [9]): 10

Cc1cc(C(=O)NCC(F)(F)F)nn1Cc1ccnc(C(F)(F)F)c1 [Compound 74]
Plant response rating (scale of 0 to 100), Kochia (kochia [1]): 98
Kochia plant response rating (kochia [1]; [8]): 98
Plant response rating, Kochia (kochia [1]; 13 to 15 days): 98
Kochia plant response rating (kochia [1]; [9]): 98
Foxtail, Green plant response rating (foxtail, green; Postemergence, 31 g ai/ha): 0
Foxtail, Green plant response rating (foxtail, green; postemergence, 62 g ai/ha): 0
Plant response rating, Foxtail, Green (foxtail, green; [5]): 5
Plant response rating, Foxtail, Green (foxtail, green; [7]): 0
Plant response rating (scale of 0 to 100), Cocklebur (cocklebur): 100
Cocklebur plant response rating (cocklebur; [8]): 100
Plant response rating, Cocklebur (cocklebur; 13 to 15 days): 100
Cocklebur plant response rating (cocklebur; [9]): 100

CCCNC(=O)c1cc(CC)n(Cc2nc(C(F)(F)F)nn2C)n1 [Compound 109]
Plant response rating, Dayflower, VA (dayflower, VA; 16 g ai/ha): 15
Plant response rating, Dayflower, VA (dayflower, VA; 31 g ai/ha): 20
Plant response rating, Dayflower, VA (dayflower, VA; 125 g ai/ha): 40
Plant response rating, Dayflower, VA (dayflower, VA; 250 g ai/ha): 70
Plant response rating, Corn (corn [2]; 16 g ai/ha): 0
Plant response rating, Corn (corn [2]; 31 g ai/ha): 0
Plant response rating, Corn (corn [2]; 125 g ai/ha): 20
Plant response rating, Corn (corn [2]; 250 g ai/ha): 75
Plant response rating, Hairy Beggarticks (hairy beggarticks; 16 g ai/ha): 35
Plant response rating, Hairy Beggarticks (hairy beggarticks; 31 g ai/ha): 45
Plant response rating, Hairy Beggarticks (hairy beggarticks; 125 g ai/ha): 50
Plant response rating, Hairy Beggarticks (hairy beggarticks; 250 g ai/ha): 60
Plant response rating, Wild Poinsettia (wild poinsettia; 16 g ai/ha): 40
Plant response rating, Wild Poinsettia (wild poinsettia; 31 g ai/ha): 50
Plant response rating, Wild Poinsettia (wild poinsettia; 125 g ai/ha): 70
Plant response rating, Arrowleaf Sida (arrowleaf sida; 16 g ai/ha): 30
Plant response rating, Arrowleaf Sida (arrowleaf sida; 31 g ai/ha): 30
Plant response rating, Arrowleaf Sida (arrowleaf sida; 125 g ai/ha): 50
Plant response rating, Arrowleaf Sida (arrowleaf sida; 250 g ai/ha): 60

CCCc1cc(C(=O)NC(C)C)nn1Cc1cc(C(F)(F)F)nn1C [Compound 201]
Plant response rating, Corn (corn [3]; [10]): 10
Plant response rating, Corn (corn [3]; [11]): 20
Plant response rating, Corn (corn [3]; [12]): 60
Plant response rating, Corn (corn [3]; [13]): 0
Plant response rating, Giant Foxtail (giant foxtail; [10]): 75
Plant response rating, Giant Foxtail (giant foxtail; [11]): 75
Plant response rating, Giant Foxtail (giant foxtail; [12]): 100
Plant response rating, Giant Foxtail (giant foxtail; [13]): 0
Plant response rating, Kochia (kochia [4]; [10]): 90
Plant response rating, Kochia (kochia [4]; [11]): 100
Plant response rating, Kochia (kochia [4]; [12]): 100
Plant response rating, Kochia (kochia [4]; [13]): 0
Plant response rating, Pigweed, Palmer (pigweed, palmer; [10]): 40
Plant response rating, Pigweed, Palmer (pigweed, palmer; [11]): 65
Plant response rating, Pigweed, Palmer (pigweed, palmer; [12]): 90
Plant response rating, Pigweed, Palmer (pigweed, palmer; [13]): 0

CCc1cc(C(=O)NCC(F)(F)F)nn1Cc1ccnc(Br)c1 [Compound 224]
Plant response rating, Corn (corn [3]; [10]): 0
Plant response rating, Corn (corn [3]; [11]): 20
Plant response rating, Corn (corn [3]; [12]): 40
Plant response rating, Giant Foxtail (giant foxtail; [10]): 40
Plant response rating, Giant Foxtail (giant foxtail; [11]): 75
Plant response rating, Giant Foxtail (giant foxtail; [12]): 98
Plant response rating, Kochia (kochia [4]; [10]): 90
Plant response rating, Kochia (kochia [4]; [11]): 100
Plant response rating, Kochia (kochia [4]; [12]): 100
Plant response rating, Pigweed, Palmer (pigweed, palmer; [10]): 100
Plant response rating, Pigweed, Palmer (pigweed, palmer; [11]): 100
Plant response rating, Pigweed, Palmer (pigweed, palmer; [12]): 100
